Earlier results in US12553008B2, “Extracting and refining plant cuticular waxes from aqueous dispersion using temperature and pH adjustment” (JENA TRADING APS, priority 2019, dated 2026).
Like-named read-outs stand apart in the source and are kept apart here.

Assays:
[1] = not given; remark: listed apart in the source

SMILES	pKa	Solubility of free fatty acids in water ([1]; at 30° C.) [mg/L at 30 °C]	further results
CCCCCCCCCCCCCC(=O)O [Myristic (C14 saturated), Myristic]	4.9	24	Solubility of free fatty acids in water ([1]; at 60° C.): 33 mg/L at 60 °C
CCCCCCCCCCCC(=O)O [Lauric (C12 saturated), Lauric]	5.3	63	Solubility of free fatty acids in water ([1]; at 45° C.): 72 mg/L at 45 °C
CCCCCCCCCCCCCCCC(=O)O [Palmitic (C16 saturated), Palmitic]	4.75	–	–
CCCCCCCCCCCCCCCCCC(=O)O [Stearic (C18 saturated), Stearic]	4.8-4.9	–	–
CCCCCCCC/C=C\CCCCCCCC(=O)O [Oleic (C18 mono-unsaturated), oleic acid]	–	–	Solubility of free fatty acids in water ([1]; in words, no temperature printed): Insoluble; Solubility of free fatty acids in water ([1]; in words, no temperature printed, listed as oleic): very low
